Entries after “also recorded” stand apart in the source; their conditions may differ.
Assays:
[1] = test system: normal human liver cell line, HL7702; assay: MTT cytotoxicity on normal cells; type: cell-based; conditions: 48 h; for cytotoxic effects on normal liver cells (HL7702): concentration ≤10 μM
Description: (§1) The human colorectal cancer cell lines, HCT116 and LoVo, the breast cancer cell line, T47D, the hepatocellular carcinoma cell line, HepG2, the normal human liver cell line, HL7702, human umbilical vein endothelial cells (HUVECs), and the non-small cell lung cancer cell lines, A549, H1993, HCC827, H460, were purchased from the American Type Culture Collection (Manassas, VA, United States). Cell lines were cultured in the recommended RPMI-1640 medium (AE24464298, Hyclone, United States) and DMEM medium (AE29422278, Hyclone, United States) supplemented with 10% fetal bovine serum (FBS; JC63470, FB15015, Clark, United States) with 1% penicillin-streptomycin. Cells were maintained in an incubator at 37°C with 5% CO2 (HF90,Sanyo, Japan) and passaged every 48–72 h, after detaching with 0.25% trypsin (Sigma, United States). The compounds ZLDI-8 and NY-1 to -15 were synthesized in the laboratory of Dr. Huaiwei Ding in Shenyang Pharmaceutical University, and verified by high-performance liquid chromatography (purity >95%) for use in experiments (Supplementary Figure S1). Paclitaxel was purchased from MedChemExpress (HY-B0015, 99.97% purity, United States).
(§2) Cell viability was measured by the MTT assay. HCT116, HL7702, A549, H1993, HCC827, and H460 cells were dispensed into 96-well plates at a density of 1 × 10^5 cells/mL. After 24–48 h incubation, cells were treated with the compounds at different concentrations for the indicated periods. An assay kit (WLA073, Wanlei Co., Liaoning, China), was used according to the manufacturer’s instructions to measure LDH activity, The absorbance at 450 nm was measured with a microplate reader (Elx-800, Bio-Rad, China).
First, the effects of NY-2 and ZLDI-8 on the survival rates of four NSCLC cell lines, A549, H1993, HCC827, H460, were compared by the MTT cytotoxicity assay. The various types of NSCLC cells were incubated with increasing concentrations of NY-2 and ZLDI-8 (1.25, 2.5, 5, 10, and 20 μM), and the cell viability at 48 h was measured. […]

[2] = test system: H1993; assay: MTT cytotoxicity assay, NSCLC cells; type: cell-based; conditions: Homo sapiens, NCI-H1993, 48 h
Description: as §1, §2
(§3) First, the effects of NY-2 and ZLDI-8 on the survival rates of four NSCLC cell lines, A549, H1993, HCC827, H460, were compared by the MTT cytotoxicity assay. The various types of NSCLC cells were incubated with increasing concentrations of NY-2 and ZLDI-8 (1.25, 2.5, 5, 10, and 20 μM), and the cell viability at 48 h was measured. […] Considering that the culture time might be too long, NY-2 was selected for 48 h treatment at increasing concentrations of 2.5, 5.0, and 10 μM as the experimental conditions for subsequent in vitro experiments.

[3] = test system: HCC827; assay: MTT cytotoxicity assay, NSCLC cells; type: cell-based; conditions: Homo sapiens, 48 h
Description: as §1, §2, §3

[4] = Pharmacokinetics in rats after tail vein injection; type: in vivo, Sprague-Dawley rats; conditions: for Cmax / half-life / MRT last / AUC(0-inf) / AUC(0-t): male, Sprague-Dawley, plasma; for MRT last: read-out: MRT0-t; for AUC(0-inf) / AUC(0-t): 6 mg/kg
Excerpt: We used the online ADME prediction tool Swiss AMDE (http://www.swissadme.ch/index.php) (SwissADME, 2017) to analyze the physicochemical descriptors and ADME parameters of NY-2 and ZLDI-8, to predict their pharmacokinetic properties, drug-like nature, and medicinal chemistry. […] Male Sprague-Dawley rats weighing 240 ± 20 g were purchased from Liaoning Changsheng Biotechnology Co., Ltd. (Liaoning, China, animal license #SCXK-2015-0001). Rats were used for the tissue distribution and pharmacokinetics experiments because of their larger body fluid volume. The rats were fasted for 12 h before the experiment but allowed to drink water freely. Animals were anesthetized with 4% chloral hydrate (0.5 mL/100 g), the total blood volume was collected from the abdominal aorta and quickly dispensed into heparinized EP tubes prepared in advance. The rats were euthanized after blood collection was completed. Plasma samples were subjected to a protein precipitation method for the quantitative analysis of ZLDI-8 and NY-2 by LC-MS/MS (API 3200MD, AB Sciex, United States). The samples were injected into the ionization source by the auto-sampler. A series of standard solutions of ZLDI-8 were prepared with final concentrations of 20, 50, 100, 250, 500, 1000, and 1500 ng/mL; and NY-2 was prepared with final concentrations of 100, 200, 500, 800, 1200, 1600, and 2000 ng/mL. The linear equation and correlation coefficient (r) of the regression curve were calculated from these concentrations and the corresponding absorption data. The specificity, lower limit of quantification (LLOQ), linear range, precision, accuracy, matrix effects, extraction recovery, stability of analytes during the whole process of storage, as well as treatment in a biological matrix and solution were determined to verify the reliability of the compound concentrations in vivo.
The plasma concentration-time concentration data of ZLDI-8 and NY-2 at different times were fitted by DAS2.0 pharmacokinetics software and the drug-time curve was drawn. The drug-time curves of the two compounds were compared and simulated, and a two-compartment model was selected to calculate the pharmacokinetic parameters using the statistical moment algorithm. The peak value (Cmax), half-life (t1/2), area under the curve (AUC0-t and AUC0-∞), plasma clearance rate (CL), mean retention time (MRT), and other parameters of the test data were expressed as mean ± SD. Statistical analyses were performed using GraphPad Prism 5 (GraphPad Software, San Diego, CA, United States), and all experiments were repeated at least three times. […] The experimental results are presented as mean ± SD or mean ± SEM, and significant differences are defined as p ≤ .05.
Plasma samples obtained after the SD rat tail vein injection of ZLDI-8 and NY-2 were processed and analyzed by HPLC-MS/MS, and the measured peak areas of ZLDI-8 and NY-2 were compared with the internal standard peak areas. The accompanying standard curves were used to calculate the plasma drug concentrations of each rat at different time points from the measured values. The plasma concentration-time data of ZLDI-8 and NY-2 at different times were fitted by DAS2.0 pharmacokinetic software, and the pharmacokinetic outcomes of the two compounds were obtained according to the two-compartment model and the pharmacokinetic parameters are shown in Table 2. The average plasma concentration-time curve after intravenous injection of 6 mg/kg compound ZLDI-8 and NY-2 was obtained by plotting the plasma concentrations against time.

[5] = test system: T47D; assay: MTT cell viability assay; type: cell-based, human; conditions: Homo sapiens, T47D breast cancer cells
Description: as §1, §2
The preliminary antitumor activity of the series of ZLDI-8 derivatives, NY-1 to -15 was screened by the MTT cell viability assay. […] The antitumor activity of NY-2 on HCT116 cells was concentration- and time-dependent, and slightly better than that of the original compound, ZLDI-8.

[6] = intravenous, rat, tail vein injection 6 mg/kg, mean ± SD, n = 6
[7] = iv, rat, tail vein injection 6 mg/kg, mean ± SD, n = 6
[8] = rat, iv, intravenous injection 6 mg/kg
[9] = rat, iv, tail vein injection 6 mg/kg, mean ± SD, n = 6

Structure (SMILES) | cytotoxic effects on normal liver cells (HL7702) [1] | toxic effects on normal liver cells (HL7702) ([1]; concentrations >10 μM) | IC50 [2] [µM] | IC50 [3] [µM] | Cmax [4, 6] [ng/mL] | Cmax [4, 7] [ng/mL] | half-life [4, 7] [min] | MRT last [4, 7] [min] | AUC(0-inf) [4, 8] [ng·h/mL] | AUC(0-t) [4, 8] [ng·h/mL] | AUC(0-inf) [4, 9] [ng·h/mL] | AUC(0-t) [4, 9] [ng·h/mL] | MRT0-t of NY-2 relative to ZLDI-8 (printed: lower) ([4]; rat, 6 mg/kg iv) [times] | plasma clearance (CL) of NY-2 as share of ZLDI-8's ([4]; rat, 6 mg/kg iv) [%] | t1/2 of NY-2 relative to ZLDI-8 (longer) ([4]; rat, 6 mg/kg iv) | CLZ rate of NY-2 as fraction of that of ZLDI-8 ([4]; rats) | IC50 [5] [µM]
Cc1c(C=C2C(=O)NC(=S)NC2=O)c2ccccc2n1CCOc1ccc(F)cc1 [NY-2] | neither ZLDI-8 nor NY-2 had any obvious cytotoxic effects on normal cells; also recorded: no obvious cytotoxic effects | slightly weaker toxic effects than ZLDI-8 | 4.78 ± 0.64 | 5.98 ± 0.75 | 2750 | 2750 ± 1110 | 129 ± 37.2 | 64.2 ± 9.6 | 402 | 370 | 402 ± 130 | 370 ± 111 | 3.5 | 22.2 | approximately 3.6 fold | 1/5 | 34.7
Cc1ccc(OCCn2c(C)c(C=C3C(=O)NC(=S)NC3=O)c3ccccc32)c(C)c1 [ZLDI-8, reference compound] | neither ZLDI-8 nor NY-2 had any obvious cytotoxic effects on normal cells |  | 8.33 ± 1.01 | 9.39 ± 0.99 | 337 | 337 ± 19.4 | 35.4 ± 15.6 | 18.6 ± 1.2 | 85.2 | 58.8 | 85.2 ± 26.3 | 58.8 ± 4.62 |  |  |  |  | 29.1
